These results are taken from US20060069083A1, “Pesticidal dibenzo(hetero)azepine derivatives” (priority 2002, published 2006).

The subject of series [1] is Meloidogyne incognita J2 larvae. Description: Root-knot nematode solution assay. The format is in vivo. The conditions noted are these: 100 ppm; read after 72 hours; immobility regarded as mortality. The protocol: Test Procedures for Root-Knot Nematode Solution Assay (Meloidogyne incognita):
To microtiter plates containing about 1.0 mg of compound, 80:20 acetone was added to each well and the solution was mixed to obtain the desired compound concentration. The aqueous nematode suspension containing 20 to 50 Meloidogyne incognita J2 larvae per […] was added to each plate. The plates were then sealed and they were placed in an incubator at 27° C. and about 50% relative humidity. After 72 hours, the population mortality was read, whereby immobility of nematodes was regarded as mortality.

For series [2], the system named is Yellowfever mosquitos (aedes aegypti). Description: Yellowfever mosquito water treatment test, 4th instar. The conditions noted are these: 50 ppm; after 6 days. The class given is in vivo. The protocol: Yellowfever mosquitos (aedes aegypti)
The test compound (1 Vol % in acetone) was applied to water in glass dishes containing 4th instar aedes aegypti. The test dishes were maintained at about 25° C. and observed daily for mortality. Each test weas replicated in 3 test dishes.

SMILES strings stand for the structures.

On to `FC(F)(F)c1ccc2c(c1)C(N1CCN(c3ccccc3)CC1)=Nc1ccccc1S2` [I-A.51], for which, in series [1], the “mortality compared to untreated controls” value was 100%. With `Clc1ccc2c(c1)Oc1ccc(Cl)cc1C(N1CCNCC1)=N2` [I-B.23], the “mortality compared to untreated controls” value in series [2] is on record as “over 90%”.
